Tested on: GM-CSF-induced STAT5 phosphorylation in KU812 cells
Settings: dasatinib alone 100 nM, GM-CSF 4 ng/ml for 10 minutes, FIG. 6
Method: KU812 cells (a myeloid precursor cell line established from the peripheral blood of a patient in blast crisis of CML) were cultured with 100 nM dasatinib with or without Bion-1 (100 nM) and constitutively stimulated with GM-CSF (4 ng/ml) for 10 minutes.

Cc1nc(Nc2ncc(C(=O)Nc3c(C)cccc3Cl)s2)cc(N2CCN(CCO)CC2)n1 [dasatinib]
inhibition of p-STAT5 phosphorylation in the presence of GM-CSF: does not inhibit
